In patent US9365522B2, “Pyrazole amide derivative” (AMGEN INC., priority 2015, dated 2016):

Target: T1, human RORγ-LBD (Homo sapiens, UniProt P51449)
T1 construct: made in house; host or cells: E. coli (BL-21)
T1 sequence (P51449 262-518): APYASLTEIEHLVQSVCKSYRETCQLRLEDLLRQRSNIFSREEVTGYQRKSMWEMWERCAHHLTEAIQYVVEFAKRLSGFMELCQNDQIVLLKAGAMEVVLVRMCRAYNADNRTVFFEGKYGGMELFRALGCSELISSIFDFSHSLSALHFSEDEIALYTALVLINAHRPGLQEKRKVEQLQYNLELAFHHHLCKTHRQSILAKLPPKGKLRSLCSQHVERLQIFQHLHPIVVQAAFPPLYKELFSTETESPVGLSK
Assay: ROR gamma coactivator peptide recruitment Alphascreen assay (RORγ-LBD binding to GRIP1 coactivator peptide)
Assay type: biochemical
Conditions: 5 nM human RORγ-LBD, 30 nM 7-β-hydroxycholesterol, 50 nM biotinylated GRIP1 coactivator peptide, overnight incubation at room temperature; read-out: result (pIC50, RORγ coactivator peptide recruitment Alphascreen assay) (converted)
In short: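 Alphascreen proximity read-out after overnight room-temperature incubation, yielding pIC50 from 1-in-2 compound series (2.5% DMSO final). Mixture: 50 nM biotin-GRIP1 peptide, 30 nM 7-β-hydroxycholesterol agonist, 5 nM recombinant 6×His:Flag human RORγ-LBD (aa 262-518), 50 mM HEPES pH 7.4.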

Compound	IC50
C[C@]1(C(=O)O)CC[C@H](n2ncc(C(=O)N(CC(=O)c3c(Cl)cncc3Cl)C3CC4(CCC4)C3)c2C(F)(F)F)CC1 [Example 633, trans-4-(4-((2-(3,5-dichloro-4-pyridinyl)-2-oxoethyl)(spiro[3.3]hept-2-yl)carbamoyl)-5-(trifluoromethyl)-1H-pyrazol-1-yl)-1-methylcyclohexanecarboxylic acid]	8.13 nM
CC1(C)CC[C@H]1N(CC(=O)c1c(Cl)cncc1Cl)C(=O)c1cnn([C@H]2CC[C@@H](C(=O)O)CC2)c1C(F)(F)F [Example 634, cis-4-(4-((2-(3,5-dichloro-4-pyridinyl)-2-oxoethyl)((1R)-2,2-dimethylcyclobutyl)carbamoyl)-5-(trifluoromethyl)-1H-pyrazol-1-yl)cyclohexanecarboxylic acid]	871 nM
CC1(C)CC[C@@H]1N(CC(=O)c1c(Cl)cncc1Cl)C(=O)c1cnn([C@H]2CC[C@@H](C(=O)O)CC2)c1C(F)(F)F [Example 635, cis-4-(4-((2-(3,5-dichloro-4-pyridinyl)-2-oxoethyl)((1S)-2,2-dimethylcyclobutyl)carbamoyl)-5-(trifluoromethyl)-1H-pyrazol-1-yl)cyclohexanecarboxylic acid]	324 nM
CC1(C)CC[C@H]1N(CC(=O)c1c(Cl)cccc1Cl)C(=O)c1cnn([C@H]2CC[C@@H](C(=O)O)CC2)c1C(F)(F)F [Example 636, cis-4-(4-((2-(2,6-dichlorophenyl)-2-oxoethyl)((1R)-2,2-dimethylcyclobutyl)carbamoyl)-5-(trifluoromethyl)-1H-pyrazol-1-yl)cyclohexanecarboxylic acid]	132 nM
CC1(C)CC[C@@H]1N(CC(=O)c1c(Cl)cccc1Cl)C(=O)c1cnn([C@H]2CC[C@@H](C(=O)O)CC2)c1C(F)(F)F [Example 637, cis-4-(4-((2-(2,6-dichlorophenyl)-2-oxoethyl)((1S)-2,2-dimethylcyclobutyl)carbamoyl)-5-(trifluoromethyl)-1H-pyrazol-1-yl)cyclohexanecarboxylic acid]	724 nM
COC1(CN(CC(=O)c2c(Cl)cncc2Cl)C(=O)c2cnn([C@H]3CC[C@](C)(C(=O)O)CC3)c2C(F)(F)F)CCCC1 [Example 638, trans-4-(4-((2-(3,5-dichloro-4-pyridinyl)-2-oxoethyl)((1-methoxycyclopentyl)methyl)carbamoyl)-5-(trifluoromethyl)-1H-pyrazol-1-yl)-1-methylcyclohexanecarboxylic acid]	15.5 nM
C[C@]1(C(=O)O)CC[C@H](n2ncc(C(=O)N(CC(=O)c3c(Cl)cccc3Cl)[C@@H]3CCC34CCC4)c2C(F)(F)F)CC1 [Example 639, trans-4-(4-((2-(2,6-dichlorophenyl)-2-oxoethyl)((1R)-spiro[3.3]hept-1-yl)carbamoyl)-5-(trifluoromethyl)-1H-pyrazol-1-yl)-1-methylcyclohexanecarboxylic acid]	57.5 nM
O=C(CN(C(=O)c1cnn([C@H]2CC[C@@H](C(=O)O)CC2)c1C(F)(F)F)[C@@H]1CCC12CCC2)c1c(Cl)cccc1Cl [Example 640, cis-4-(4-((2-(2,6-dichlorophenyl)-2-oxoethyl)((1R)-spiro[3.3]hept-1-yl)carbamoyl)-5-(trifluoromethyl)-1H-pyrazol-1-yl)cyclohexanecarboxylic acid]	776 nM
C[C@]1(C(=O)O)CC[C@H](n2ncc(C(=O)N(CC(=O)c3c(Cl)cccc3Cl)[C@H]3CCC34CCC4)c2C(F)(F)F)CC1 [Example 641, trans-4-(4-((2-(2,6-dichlorophenyl)-2-oxoethyl)((1S)-spiro[3.3]hept-1-yl)carbamoyl)-5-(trifluoromethyl)-1H-pyrazol-1-yl)-1-methylcyclohexanecarboxylic acid]	2.14 nM
O=C(CN(C(=O)c1cnn([C@H]2CC[C@@H](C(=O)O)CC2)c1C(F)(F)F)[C@H]1CCC12CCC2)c1c(Cl)cccc1Cl [Example 642, cis-4-(4-((2-(2,6-dichlorophenyl)-2-oxoethyl)((1S)-spiro[3.3]hept-1-yl)carbamoyl)-5-(trifluoromethyl)-1H-pyrazol-1-yl)cyclohexanecarboxylic acid]	24 nM
C[C@]1(C(=O)O)CC[C@H](n2ncc(C(=O)N(CC(=O)c3c(F)cccc3Cl)CC3(F)CCCC3)c2C(F)(F)F)CC1 [Example 643, trans-4-(4-((2-(2-chloro-6-fluorophenyl)-2-oxoethyl)((1-fluorocyclopentyl)methyl)carbamoyl)-5-(trifluoromethyl)-1H-pyrazol-1-yl)-1-methylcyclohexanecarboxylic acid]	4.27 nM
CCC(CC)(CC)CN(CC(=O)c1c(Cl)cncc1Cl)C(=O)c1cnn([C@H]2CC[C@](C)(C(=O)O)CC2)c1C(F)(F)F [Example 644, trans-4-(4-((2-(3,5-dichloro-4-pyridinyl)-2-oxoethyl)(2,2-diethylbutyl)carbamoyl)-5-(trifluoromethyl)-1H-pyrazol-1-yl)-1-methylcyclohexanecarboxylic acid]	3.98 nM
COC1(CN(CC(=O)c2c(Cl)cncc2Cl)C(=O)c2cnn([C@H]3CC[C@](C)(C(=O)O)CC3)c2C(F)(F)F)CCCCC1 [Example 645, trans-4-(4-((2-(3,5-dichloro-4-pyridinyl)-2-oxoethyl)((1-methoxycyclohexyl)methyl)carbamoyl)-5-(trifluoromethyl)-1H-pyrazol-1-yl)1-methylcyclohexanecarboxylic acid]	13.8 nM
COC1(CN(CC(=O)c2c(Cl)cncc2Cl)C(=O)c2cnn([C@H]3CC[C@@H](C(=O)O)CC3)c2C(F)(F)F)CCCC1 [Example 646, cis-4-(4-((2-(3,5-dichloro-4-pyridinyl)-2-oxoethyl)((1-methoxycyclopentyl)methyl)carbamoyl)-5-(trifluoromethyl)-1H-pyrazol-1-yl)cyclohexanecarboxylic acid]	295 nM
CC1(C)C[C@H]1N(CC(=O)c1c(Cl)cncc1Cl)C(=O)c1cnn([C@H]2CC[C@](C)(C(=O)O)CC2)c1C(F)(F)F [Example 648, trans-4-(4-((2-(3,5-dichloro-4-pyridinyl)-2-oxoethyl)((1R)-2,2-dimethylcyclopropyl)carbamoyl)-5-(trifluoromethyl)-1H-pyrazol-1-yl)-1-methylcyclohexanecarboxylic acid]	32.4 nM
C[C@]1(C(=O)O)CC[C@H](n2ncc(C(=O)N(CC(=O)c3c(Cl)cccc3Cl)[C@H]3CCC34CCCC4)c2C(F)(F)F)CC1 [Example 649, trans-4-(4-((2-(2,6-dichlorophenyl)-2-oxoethyl)((1S)-spiro[3.4]oct-1-yl)carbamoyl)-5-(trifluoromethyl)-1H-pyrazol-1-yl)-1-methylcyclohexanecarboxylic acid]	1.82 nM
C[C@]1(C(=O)O)CC[C@H](n2ncc(C(=O)N(CC(=O)c3c(Cl)cccc3Cl)[C@@H]3CCC34CCCC4)c2C(F)(F)F)CC1 [Example 650, trans-4-(4-((2-(2,6-dichlorophenyl)-2-oxoethyl)((1R)-spiro[3.4]oct-1-yl)carbamoyl)-5-(trifluoromethyl)-1H-pyrazol-1-yl)-1-methylcyclohexanecarboxylic acid]	7.94 nM
C[C@]1(C(=O)O)CC[C@H](n2ncc(C(=O)N(CC(=O)c3c(Cl)cccc3Cl)[C@@H]3CC34CCCC4)c2C(F)(F)F)CC1 [Example 652, trans-4-(4-((2-(2,6-dichlorophenyl)-2-oxoethyl)((1R)-spiro[2.4]hept-1-yl)carbamoyl)-5-(trifluoromethyl)-1H-pyrazol-1-yl)-1-methylcyclohexanecarboxylic acid]	4.37 nM
C[C@]1(C(=O)O)CC[C@H](n2ncc(C(=O)N(CC(=O)c3c(Cl)cccc3Cl)[C@H]3CCOC4(CCC4)C3)c2C(F)(F)F)CC1 [Example 653, trans-4-(4-((2-(2,6-dichlorophenyl)-2-oxoethyl)((8S)-5-oxaspiro[3.5]non-8-yl)carbamoyl)-5-(trifluoromethyl)-1H-pyrazol-1-yl)-1-methylcyclohexanecarboxylic acid]	70.8 nM
C[C@]1(C(=O)O)CC[C@H](n2ncc(C(=O)N(CC(=O)c3c(Cl)cccc3Cl)[C@@H]3CCOC4(CCC4)C3)c2C(F)(F)F)CC1 [Example 654, trans-4-(4-((2-(2,6-dichlorophenyl)-2-oxoethyl)((8R)-5-oxaspiro[3.5]non-8-yl)carbamoyl)-5-(trifluoromethyl)-1H-pyrazol-1-yl)-1-methylcyclohexanecarboxylic acid]	355 nM
CC1(C)CC[C@H](CN(CC(=O)c2c(Cl)cncc2Cl)C(=O)c2cnn([C@H]3CC[C@](C)(C(=O)O)CC3)c2C(F)(F)F)O1 [Example 655, trans-4-(4-((2-(3,5-dichloro-4-pyridinyl)-2-oxoethyl)(((2R)-5,5-dimethyltetrahydro-2-furanyl)methyl)carbamoyl)-5-(trifluoromethyl)-1H-pyrazol-1-yl)-1-methylcyclohexanecarboxylic acid]	26.9 nM
CC1(C)C[C@@H]1N(CC(=O)c1c(Cl)cncc1Cl)C(=O)c1cnn([C@H]2CC[C@H](C(=O)O)CC2)c1C(F)(F)F [Example 656, trans-4-(4-((2-(3,5-dichloro-4-pyridinyl)-2-oxoethyl)((1S)-2,2-dimethylcyclopropyl)carbamoyl)-5-(trifluoromethyl)-1H-pyrazol-1-yl)cyclohexanecarboxylic acid]	186 nM
CCC(C)(C)CN(CC(=O)c1c(F)cccc1Cl)C(=O)c1cnn([C@H]2CC[C@](C)(C(=O)O)CC2)c1C(F)(F)F [Example 657, trans-4-(4-((2-(2-chloro-6-fluorophenyl)-2-oxoethyl)(2,2-dimethylbutyl)carbamoyl)-5-(trifluoromethyl)-1H-pyrazol-1-yl)-1-methylcyclohexanecarboxylic acid]	2.24 nM
